Laboratory results published in article PMC11858653, “Design, Synthesis and Bioactive Evaluation of Topo I/c-MYC Dual Inhibitors to Inhibit Oral Cancer via Regulating the PI3K/AKT/NF-κB Signaling Pathway” (Molecules, 2025).

Assays:
Topo I = molecular target: T1, Topo I (Homo sapiens, UniProt P11387); assay: Topo I inhibitory activity, agarose gel electrophoresis (pBR322); format: biochemical; conditions: 20 μM
T1 sequence (P11387 1-765): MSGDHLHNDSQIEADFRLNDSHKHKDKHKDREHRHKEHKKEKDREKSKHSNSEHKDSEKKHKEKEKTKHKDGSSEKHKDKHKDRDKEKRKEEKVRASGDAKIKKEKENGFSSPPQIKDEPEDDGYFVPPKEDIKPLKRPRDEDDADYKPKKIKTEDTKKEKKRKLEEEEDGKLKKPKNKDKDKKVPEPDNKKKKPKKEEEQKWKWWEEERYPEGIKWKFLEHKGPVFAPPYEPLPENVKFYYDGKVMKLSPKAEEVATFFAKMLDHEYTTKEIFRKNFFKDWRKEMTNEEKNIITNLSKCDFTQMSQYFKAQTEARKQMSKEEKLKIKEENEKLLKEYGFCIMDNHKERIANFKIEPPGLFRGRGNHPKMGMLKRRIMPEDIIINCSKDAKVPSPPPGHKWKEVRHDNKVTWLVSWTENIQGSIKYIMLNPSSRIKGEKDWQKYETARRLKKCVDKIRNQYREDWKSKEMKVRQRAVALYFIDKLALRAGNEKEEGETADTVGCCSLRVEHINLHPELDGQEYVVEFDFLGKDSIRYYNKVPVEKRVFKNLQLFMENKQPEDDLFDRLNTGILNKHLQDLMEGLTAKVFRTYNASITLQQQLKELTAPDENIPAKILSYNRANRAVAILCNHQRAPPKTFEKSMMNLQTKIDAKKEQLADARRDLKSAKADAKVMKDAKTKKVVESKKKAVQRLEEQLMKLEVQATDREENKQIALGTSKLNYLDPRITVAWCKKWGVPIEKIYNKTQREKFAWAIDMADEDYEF
Experimental: In this assay, 250 ng of pBR322 plasmid DNA, different concentrations of the compounds to be tested, 0.1% BSA 1 μL, 10× Topo I buffer, Topo I and add 1× TAE buffer were mixed to a final volume of 20 μL. The reaction was carried out for 30 min at 37 °C in a water bath. After the reaction was terminated, 4 μL of each of the 6× DNA Sampling Buffers were added to the gel. The pBR322 plasmid DNA alone was used as a negative control, and camptothecin was used as a positive control. Finally, the samples were loaded onto the gels and electrophoresed for about 1.5 h. After electrophoresis, the gel blocks were incubated in 1 mg/L ethidium bromide (EB) for 30 min and then visualized on the gel system.

A549 = assay: MTT antiproliferative assay, A549; format: cell-based, human; conditions: mean ± SD
Experimental: (§1) Having evaluated their Topo I inhibitory activity, the antiproliferative activity of the target compounds against some common human cancer cell lines (NCI-H460, A549, ACHN, Cal27 and MGC-803) and one normal cell line (SV-HUC-1) was tested via an MTT assay. TPT, the first Topo I inhibitor approved in clinics, and cisplatin (CDDP), a commonly selected anticancer drug for treating head and neck malignancies, were used as the positive controls.
(§2) Human oral cancer Cal27 cells were seeded in 96-well plates and incubated overnight in 180 μL of medium containing 10% Fetal Bovine Serum (Gibco, San Francisco, CA, USA). […] Then, 10 μL of 5 mg/mL MTT solution was added to each well and incubated at 37 °C for 4 h. After 4 h of incubation at 37 °C, the MTT-containing medium was removed and DMSO was added to each well and the absorbance at 570 nm and 630 nm was measured using a microplate reader (CYTATION 3, Burton, Westwood, NJ, USA). Survival/% = (mean OD of experimental group/mean OD of control group) × 100%. Each test was repeated at least three times.

ACHN = assay: MTT antiproliferative assay, ACHN; format: cell-based, human; conditions: 48 h, mean ± SD
Experimental: as §1, §2

SV-HUC-1 = assay: MTT assay, normal cell line SV-HUC-1; format: cell-based; conditions: mean ± SD
Experimental: as §1, §2

Cal27 = assay: MTT antiproliferative assay, Cal27; format: cell-based, human; conditions: mean ± SD
Experimental: as §1, §2

MGC-803 = assay: MTT antiproliferative assay, MGC-803; format: cell-based, human; conditions: mean ± SD
Experimental: as §1, §2

NCI-H460 = assay: MTT antiproliferative assay, NCI-H460; format: cell-based, human; conditions: mean ± SD
Experimental: as §1, §2

Compound	Topo I inhibitory activity (in words) (Topo I)	IC50 (A549; Homo sapiens, A549, 48 h)	IC50 (ACHN; Homo sapiens, ACHN)	IC50 (MGC-803; Homo sapiens, MGC-803, 48 h)	IC50 (NCI-H460; Homo sapiens, NCI-H460, 48 h)	IC50 (A549; 48 h)	IC50 (ACHN)	IC50 (MGC-803; 48 h)	IC50 (NCI-H460; 48 h)	nicked DNA in the lane (DNA breakage) (Topo I)	IC50 (SV-HUC-1; SV-HUC1, 48 h)	IC50 (Cal27; Homo sapiens, CAL-27, 48 h)	IC50 (SV-HUC-1; 48 h)	IC50 (Cal27; 48 h)
Cc1cc(C)c2c(n1)S(=O)(=O)c1c-2nc(NCCCN2CCOCC2)c2ccccc12 [7bi, 7,9-Dimethyl-5-((3-morpholinopropyl)amino)-pyrido[3′,2′:4,5]thieno[3,2-c]isoquinoline 11,11-dioxide]	weak Topo I activity	80.5 ± 2.44 µM	> 100 µM	> 100 µM	73.68 ± 0.67 µM	–	–	–	–	–	87.4 ± 2.65 µM	20.3 ± 2.89 µM	–	–
O=S1(=O)c2ncccc2-c2nc(NCCN3CCCCC3)c3ccccc3c21 [7ae, 5-((2-(Piperidin-1-yl)ethyl)amino)pyrido[3′,2′:4,5] thieno[3,2-c]isoquinoline 11,11-dioxide]	–	> 100 µM	61.7 ± 4.9 µM	14.2 ± 2.46 µM	16.9 ± 0.78 µM	–	–	–	–	–	15.2 ± 2.43 µM	7.96 ± 2.24 µM	–	–
Cc1cc(-c2ccccc2)nc2c1-c1nc(NCCN3CCCC3)c3ccccc3c1S2(=O)=O [7cc, 7-Methyl-9-phenyl-5-((2-(pyrrolidin-1-yl)ethyl)amino)pyrido[3′,2′:4,5]thieno[3,2-c]isoquinoline 11,11-dioxide]	–	–	–	–	–	> 100 µM	> 100 µM	> 100 µM	> 100 µM	–	–	–	> 100 µM	> 100 µM
O=S1(=O)c2ncccc2-c2nc(NCCCN3CCOCC3)c3ccccc3c21 [7ai, 5-((3-Morpholinopropyl)amino)pyrido[3′,2′:4,5] thieno[3,2-c]isoquinoline 11,11-dioxide]	–	> 100 µM	> 100 µM	> 100 µM	> 100 µM	–	–	–	–	–	> 100 µM	> 100 µM	–	–
O=S1(=O)c2ncccc2-c2nc(N3CCCC3)c3ccccc3c21 [7al, 5-(Pyrrolidin-1-yl)pyrido[3′,2′:4,5]thieno[3,2-c]isoquinoline 11,11-dioxide]	–	> 100 µM	> 100 µM	> 100 µM	> 100 µM	–	–	–	–	–	> 100 µM	> 100 µM	–	–
CN(C)CCNc1nc2c(c3ccccc13)S(=O)(=O)c1ncccc1-2 [7aa, 5-((2-(Dimethylamino)ethyl)amino)pyrido[3′,2′:4,5] thieno[3,2-c]isoquinoline 11,11-dioxide]	–	> 100 µM	20.5 ± 4.82 µM	21.6 ± 0.64 µM	59 ± 3.81 µM	–	–	–	–	–	20.8 ± 3.83 µM	14.4 ± 4.75 µM	–	–
Cc1cc(C)c2c(n1)S(=O)(=O)c1c-2nc(NCCCn2ccnc2)c2ccccc12 [7bj, 5-((3-(1H-Imidazol-1-yl)propyl)amino)-7,9-dimethylpyrido[3′,2′:4,5]thieno[3,2-c]isoquinoline 11,11-dioxide]	–	> 100 µM	> 100 µM	> 100 µM	> 100 µM	–	–	–	–	–	> 100 µM	> 100 µM	–	–
O=S1(=O)c2ncccc2-c2nc(NCCCn3ccnc3)c3ccccc3c21 [7aj, 5-((3-(1H-Imidazol-1-yl)propyl)amino)pyrido[3′,2′:4,5]thieno[3,2-c]isoquinoline 11,11-dioxide]	–	> 100 µM	> 100 µM	> 100 µM	> 100 µM	–	–	–	–	–	> 100 µM	> 100 µM	–	–
CC[C@@]1(O)C(=O)OCc2c1cc1n(c2=O)Cc2cc3c(CN(C)C)c(O)ccc3nc2-1 [TPT, topotecan, reference compound]	–	3.84 ± 0.56 µM	4.32 ± 0.63 µM	6.36 ± 1.09 µM	21.4 ± 1.33 µM	–	–	–	–	–	30.8 ± 1.58 µM	2.33 ± 0.12 µM	–	–
O=S1(=O)c2ncccc2-c2nc(NCCN3CCOCC3)c3ccccc3c21 [7ad, 5-((2-Morpholinoethyl)amino)pyrido[3′,2′:4,5]thieno[3,2-c]isoquino-line 11,11-dioxide]	–	> 100 µM	> 100 µM	> 100 µM	> 100 µM	–	–	–	–	–	> 100 µM	> 100 µM	–	–

Second part, led by results:

Topo I inhibitory activity (in words) (Topo I)	IC50 (A549; Homo sapiens, A549, 48 h)	IC50 (ACHN; Homo sapiens, ACHN)	IC50 (MGC-803; Homo sapiens, MGC-803, 48 h)	IC50 (NCI-H460; Homo sapiens, NCI-H460, 48 h)	IC50 (A549; 48 h)	IC50 (ACHN)	IC50 (MGC-803; 48 h)	IC50 (NCI-H460; 48 h)	nicked DNA in the lane (DNA breakage) (Topo I)	Compound	IC50 (SV-HUC-1; SV-HUC1, 48 h)	IC50 (Cal27; Homo sapiens, CAL-27, 48 h)	IC50 (SV-HUC-1; 48 h)	IC50 (Cal27; 48 h)
–	–	–	–	–	86.5 ± 3.15 µM	> 100 µM	94 ± 2.15 µM	93 ± 8.03 µM	–	Cc1cc(-c2ccccc2)nc2c1-c1nc(NCCN3CCCCC3)c3ccccc3c1S2(=O)=O [7ce, 7-Methyl-9-phenyl-5-((2-(piperidin-1-yl)ethyl)-amino)pyrido[3′,2′:4,5]thieno[3,2-c]isoquinoline 11,11-dioxide]	–	–	> 100 µM	56.8 ± 2.59 µM
–	–	–	–	–	> 100 µM	> 100 µM	> 100 µM	> 100 µM	nicked DNA could be clearly observed	Cc1cc(-c2ccccc2)nc2c1-c1nc(NCCCN3CCCC3)c3ccccc3c1S2(=O)=O [7ch, 7-Methyl-9-phenyl-5-((3-(pyrrolidin-1-yl)propyl)-amino)pyrido[3′,2′:4,5]thieno[3,2-c]isoquinoline 11,11-dioxide]	–	–	49.6 ± 3.27 µM	> 100 µM
–	–	–	–	–	37.39 ± 0.21 µM	> 100 µM	> 100 µM	> 100 µM	–	CCN(CC)CCNc1nc2c(c3ccccc13)S(=O)(=O)c1nc(-c3ccccc3)cc(C)c1-2 [7cb, 5-((2-(Diethylamino)ethyl)amino)-7-methyl-9-phenylpyrido[3′,2′:4,5]thieno[3,2-c]isoquinoline 11,11-dioxide]	–	–	> 100 µM	20.3 ± 2.34 µM
–	–	–	–	–	> 100 µM	> 100 µM	> 100 µM	> 100 µM	–	Cc1cc(-c2ccccc2)nc2c1-c1nc(NCCCN3CCOCC3)c3ccccc3c1S2(=O)=O [7ci, 7-Methyl-5-((3-morpholinopropyl)amino)-9-phenylpyrido[3′,2′:4,5]thieno[3,2-c]isoquinoline 11,11-dioxide]	–	–	> 100 µM	> 100 µM
–	–	–	–	–	> 100 µM	> 100 µM	53.1 ± 3.78 µM	> 100 µM	–	Cc1cc(-c2ccccc2)nc2c1-c1nc(NCCN(C)C)c3ccccc3c1S2(=O)=O [7ca, 5-((2-(Dimethylamino)ethyl)amino)-7-methyl-9-phenylpyrido[3′,2′:4,5]-thieno[3,2-c]isoquinoline 11,11-dioxide]	–	–	> 100 µM	> 100 µM
–	–	–	–	–	> 100 µM	> 100 µM	> 100 µM	> 100 µM	–	Cc1cc(-c2ccccc2)nc2c1-c1nc(NCCCn3ccnc3)c3ccccc3c1S2(=O)=O [7cj, 5-((3-(1H-imidazol-1-yl)propyl)amino)-7-methyl-9-phenylpyrido[3′,2′:4,5]thieno[3,2-c]isoquinoline 11,11-dioxide]	–	–	> 100 µM	> 100 µM
–	42.6 ± 1.89 µM	> 100 µM	47 ± 2.43 µM	59.7 ± 9.65 µM	–	–	–	–	–	CCN(CC)CCNc1nc2c(c3ccccc13)S(=O)(=O)c1ncccc1-2 [7ab, 5-((2-(Diethylamino)ethyl)amino)pyrido[3′,2′:4,5] thieno[3,2-c]isoquinoline 11,11-dioxide]	21.6 ± 3.19 µM	23.8 ± 1.08 µM	–	–
–	–	–	–	–	78.9 ± 2.86 µM	> 100 µM	> 100 µM	> 100 µM	–	Cc1cc(-c2ccccc2)nc2c1-c1nc(NCCN3CCOCC3)c3ccccc3c1S2(=O)=O [7cd, 7-Methyl-5-((2-morpholinoethyl)amino)-9-phenylpyrido[3′,2′:4,5]thieno[3,2-c]isoquinoline 11,11-dioxide]	–	–	> 100 µM	> 100 µM
